Experimental findings from patent US9617311B2, “Use of PEDF-derived polypeptides for promoting stem cells proliferation and wound healing” (Mackay Memorial Hospital, priority 2011, dated 2017) are described below.

The test system of test [1] is full-thickness skin excisional wounds. Kind of test: Skin wound healing in mice, wound area from photographs. The conditions noted are these: for residual epithelial defects, percentage of the original wound: 25 μl skin ointment with 50 μM peptide once daily. In kind it is in vivo, C57L/B6 mice. On the procedure: FIG. 6A provides photographs and FIG. 6B is a histogram, and together, they illustrate the skin (epithelial) wound-healing of mice from treatment groups according to another example of the present disclosure. 4 mm punch wounds were made on the dorsal side of C57/B6 mice. Skin ointment was treated once a day. Photographs of the wounded skin and ruler (scale 10 mm) were captured with a CCD camera (Olympus). The residual epithelial defect (%) is presented as percentage of the original wound. Data are shown as mean±SE.
(§1) To perform full-thickness skin excision, 8- to 10-week-old C57L/B6 mice were respectively anesthetized by an intraperitoneal injection of a mixture of zoletil (6 mg/kg) and xylazine (3 mg/kg). Two full-thickness skin excisional wounds, 4 mm in diameter were made on either side of the dorsal midline using Sklar Tru-Punch disposable biopsy punch (Sklar, West Chester, Pa., USA). In each treatment group (n=6), the skin wound was treated with 25 μl skin ointment (containing 50 μM synthetic peptide and 0.006 μl DMSO vehicle) once daily after the skin scraping. In the control group (n=6), skin wound was treated with 25 μl of skin ointment with equal concentration of DMSO. Each gram of the above skin ointment contains 5 mg neomycin sulfate and 12.5 mg Bacitracin Zinc. Wounds were left uncovered and harvested 4 and 7 days after injury. Mice were housed individually during the healing period.
The area of wound was quantified from the photographs using a computer-assisted image analyzer (Adobe Photoshop CS3 10.0) and was calculated as the percentage of residual epithelial defect at each time point/initial wound area.

Test [2] deals with hair follicle stem cells (HFSCs). Kind of test: In vitro HFSC proliferation, BrdU pulse-labeling with Lgr6 immunostaining. The conditions noted are these: 50 nM peptide or 4.5 nM PEDF in medium; BrdU 2 hours; control 31.9±5.6%. The class given is cell-based, Human. On the procedure: FIG. 5A provides immunofluorescence microscopy photographs and FIG. 5B is a histogram, and together, they illustrate the in vitro proliferation of HFSCs from treatment groups according to one example of the present disclosure. HFSC proliferation was determined by BrdU labeling for 2 hours. HFSCs (Lgr6, green) and BrdU (red) were detected by immunofluorescence microscopy (original magnification, ×1000). Twenty randomly selected fields in each group were photographed, and the percentage of BrdU and Lgr6-double positive cells (pale pink) per total Lgr6-positive cells was calculated. *P<0.001 versus untreated cells.
Human hair follicles were collected from hairs of healthy donors. The follicles were dissected with tweezers under microscope and most of adipose and connective tissue was removed. The bulge region of hair follicle under the sebaceous gland was cut and then bulge fragments (including central isthmus) were transferred into a 35-mm dish containing 1 ml of collagenase A (1 mg/ml; Roche) and incubated for 1.5 hours at 37° C. to digest the collagen capsule. Subsequently, the bulge fragments were transferred into a fresh cell culture dish containing dispase II (2.4 U/ml)/0.05% trypsin and further incubated for 1.5 hours at 37° C. to obtain a single cell suspension.
After mechanical dissection and enzymatic digestion, the suspended bulge cells isolated from five bulge fragments were seeded into a well of 12-well culture plate and incubated with the basal medium for 5 days to facilitate cell adhesion. The basal medium contains four parts Gibco calcium-free Dulbecco's modified Eagle's medium (DMEM) and one part Ham's F12 medium (calcium concentration reached about 0.25 mM) and supplemented with 10% FBS, 10 ng/ml human epidermal growth factor, 500 mg/I L-glutamine, 0.2% bovine pituitary extract, […] hydrocortisone, 1% ITSE as well as antibiotic-antimicotic solutions. Cultivation method was similar to that of Blazejewska et al. (Stem Cells 2009; 27:642). After 5 days of incubation, cells were cultured in the serum-free basal medium or basal medium containing 4.5 nM PEDF, 50 nM 29-mer, or 50 nM 20-mer, until near confluence (about 2 weeks; passage 0). The medium was changed every 2 to 3 days. The bulge cells were co-cultured with 3T3 fibroblast feeder cells. For passage, near-confluent cells were harvested by enzymatic treatment (i.e., 0.25% trypsin) for 5 min at 37° C. Approximately 1×10^5 human bulge cells were transferred to a new dish and allowed to grow for 14 days to near confluence (passage 1). […]

Test [3] concerns full-thickness skin excisional wounds. Kind of test: Skin wound healing in mice, histology with Masson's trichrome. The class given is in vivo, C57L/B6 mice. The conditions noted are these: for residual epithelial defects, Masson's trichrome sections: day 7 after trauma, control ointment 43.5±6.5%; for area of GT (granulation tissue), folds over the control group / area of HE tissue, folds over that of the control group / residual epithelial defect, Masson's trichrome sections: day 4 after trauma; for area of GT (granulation tissue), folds over the control group / area of HE tissue, folds over that of the control group: edge of the wound; for residual epithelial defect, Masson's trichrome sections: sections of the middle of the wounds, control 63.8±5.8%.
From the text: FIGS. 7A to 7E provide quantification of wound healing at day 4. […] Arrowheads (▾) and arrows (↓) denote initial wound margins and the foremost tips of the hyperproliferative epithelium (HE; red color), respectively. Data are representative of 10-16 wounds (2 wounds per mouse) in each group. *P<0.02 versus control wound. FIG. 7B is a histogram illustrating the residual epithelial defect (%) in mice from each treatment group; only sections of the middle of the wounds were used for quantification. Data are shown as mean±SE. FIG. 7C provides representative photographs of wound edge. GT: granulation tissue (blue color); Es: eschar (deep-red). […] FIGS. 7D and 7E are histograms providing quantifications of the areas of HE and GT using Adobe Photoshop CS3 10.0. *P<0.02 versus control wound.
FIGS. 8A and 8B provide quantification of wound healing at day 7. […] Arrowheads (▾) and arrows (↓) denote initial wound margins and the foremost tips of the hyperproliferative epithelium, respectively. FIG. 8B is a histogram illustrating the residual epithelial defect (%) in mice from each treatment group; only sections of the middle of the wounds were used for quantification. Data are shown as mean±SE. *P<0.05 versus control wound.
as §1
For histological analysis the complete wounds including 2 mm of the epithelial margins was isolated, bisected, fixed overnight in 4% PFA in PBS, and embedded in paraffin. Sections (5 μm) from the middle of the wound were stained using the Masson's trichrome procedure as described by the manufacturer, in which the epithelium was stained red and connective tissue was stained blue. Photographs were taken using a Leica DC 500 camera (Leica Microsystems).
To further confirm the efficacy of 29-mer and 20-mer on skin wound repair, skin sections from day 4 after trauma were stained using the Masson's trichrome. […] The residual epithelial defect of 29-mer and 20-mer-treated groups were 52.7±6.2% and 49.7±5.6%, respectively; as compared to control animals of 63.8±5.8% (FIG. 7B). In addition, 29-mer treatment elevated the thicknesses of hyper-proliferative epithelial (HE) tissue and granulation tissue (GT) around the edge of the wound (FIG. 7C).
Masson's trichrome was used to stain skin sections obtained from day 7 after trauma for the measurement of the wound closure.

Setting [4] is: day 4 post-injury, control 61.5±3.2%.
[5] abbreviates: day 7 post-injury, control 44.5±5.3%.

In the case of EQRTESIIHRALYYDLIS [18-mer], the “promotion of skin wound healing” value in test [1] (days 4 and 7, 50 μM peptide skin ointment once daily) was “not able to promote wound healing”. For the same sequence, the “percentage of BrdU and Lgr6-double positive cells per total Lgr6-positive cells” value (“percentage … per total Lgr6-positive cells” below) in test [2] was determined as 30.1±6.3%.

For “SLGAEHRTESVIHRALYYDL [Mo 20-mer, synthetic peptide derived from mouse PEDF]”, the “residual epithelial defects, percentage of the original wound” value (“residual epithelial defects, percentage” below) in test [1] (setting [4]) came to 49.6±3.9%; in test [1] (setting [5]) it was 20.3±7.5%.

Consider “SLGAEHRTESVIHRALYYDLITNPDIHST [Mo 29-mer, synthetic peptide derived from mouse PEDF]”, for which the “residual epithelial defects, Masson's trichrome sections” value in test [3] is on record as 17.2±7.3%. The results for the “residual epithelial defects, percentage” value in test [1] (setting [4]) and in test [1] (setting [5]) were 47.8±4.3% and 16.8±6.6%, respectively.

With “SLGAEQRTESIIHRALYYDL [20-mer, synthetic peptide identical to residues 11-30 of the 39-mer]”, in test [3], the “area of GT (granulation tissue), folds over the control group” value is 1.37±0.17 folds; the “area of HE tissue, folds over that of the control group” value is recorded as 1.32±0.21 folds; the “residual epithelial defect, Masson's trichrome sections” value is recorded as 49.7±5.6%; the “residual epithelial defects, Masson's trichrome sections” value was 20.8±6.1%. Moreover, the “residual epithelial defects, percentage” value in test [1] (setting [4]) worked out at 50.1±3.8%. Further, the “residual epithelial defects, percentage” value in test [1] (setting [5]) is reported as 20.0±4.9%. Moreover, in test [2], the “percentage … per total Lgr6-positive cells” value came to 79.5±2.6%.

As for “SLGAEQRTESIIHRALYYDLISSPDIHGT [29-mer, short synthetic PEDF peptide derived from the 39-mer]”, in test [3], the “area of GT (granulation tissue), folds over the control group” value was determined as 1.45±0.23 folds; the “area of HE tissue, folds over that of the control group” value is recorded as 1.41±0.25 folds; the “residual epithelial defect, Masson's trichrome sections” value was determined as 52.7±6.2%; the “residual epithelial defects, Masson's trichrome sections” value came out at 17.9±3.3%. For the same sequence, in test [1] (setting [4]), the “residual epithelial defects, percentage” value was 46.3±3.7%. Further, the “residual epithelial defects, percentage” value in test [1] (setting [5]) was found to be 18.2±4.3%. Further, the “percentage … per total Lgr6-positive cells” value in test [2] was found to be 86.2±3.9%.
